Six compounds from paper PMC7238120, “Strong and Selective Inhibitory Effects of the Biflavonoid Selamariscina A against CYP2C8 and CYP2C9 Enzyme Activities in Human Liver Microsomes” (Pharmaceutics, 2020) can be followed below.

As a reminder, the IC50 is the concentration that inhibits the measured activity by half.

In this assay the target is T1, CYP2A6 (Homo sapiens, UniProt P11509).
T1 construct: incubation mixtures containing pooled human liver microsomes (HLMs, XTreme 200, XenoTech); tissue XenoTech XTreme 200; host or cells: pooled human liver microsomes
T1 sequence (P11509 1-494): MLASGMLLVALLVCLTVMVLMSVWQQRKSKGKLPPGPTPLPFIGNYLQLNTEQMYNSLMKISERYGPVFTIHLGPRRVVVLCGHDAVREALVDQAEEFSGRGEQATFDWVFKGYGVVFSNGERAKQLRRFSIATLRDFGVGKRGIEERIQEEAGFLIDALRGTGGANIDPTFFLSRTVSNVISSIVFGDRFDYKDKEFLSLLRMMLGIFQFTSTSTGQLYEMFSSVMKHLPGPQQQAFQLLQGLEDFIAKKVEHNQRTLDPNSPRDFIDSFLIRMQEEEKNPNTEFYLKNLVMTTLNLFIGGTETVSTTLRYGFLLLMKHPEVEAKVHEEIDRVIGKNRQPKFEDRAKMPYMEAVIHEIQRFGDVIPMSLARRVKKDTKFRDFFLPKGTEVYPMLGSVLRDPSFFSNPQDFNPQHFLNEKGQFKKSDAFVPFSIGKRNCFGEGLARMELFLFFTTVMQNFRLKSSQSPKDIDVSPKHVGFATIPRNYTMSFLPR
The assay is described as follows: Inhibition of CYP2A6 (coumarin) activity in pooled human liver microsomes, cocktail incubation. Type of assay: in vitro ADME. To be noted: substrate coumarin 5 µM; pooled HLMs; read-out: IC50, P450 2A6. The procedure: The inhibitory potential of the five biflavonoids on the metabolism of nine P450 probe substrates was evaluated using previously developed methods with minor modifications. Biflavonoids were dissolved in methanol. The final concentration of methanol in the incubation mixture was 1.0% (v/v). We used these P450 probe substrates: phenacetin for CYP1A2, coumarin for CYP2A6, bupropion for CYP2B6, amodiaquine for CYP2C8, diclofenac for CYP2C9, omeprazole for CYP2C19, dextromethorphan for CYP2D6, chlorzoxazone for CYP2E1 and midazolam for CYP3A (Table 1). The incubation mixtures containing pooled human liver microsomes (HLMs, XTreme 200, XenoTech), P450 probe substrates, and inhibitor (0~20 µM) were pre-incubated at 37 °C for 5 min. The concentration range of the inhibitor varied (0, 0.002, 0.005, 0.02, 0.05, and 0.2 µM for CYP2C8; 0, 0.02, 0.05, 0.2, 0.5, and 2 µM for CYP2C9; 0, 0.5, 2, 5, 10, and 20 µM for other P450 isoforms). After pre-incubation, a reduced nicotinamide adenine dinucleotide phosphate (NADPH) generation system containing 1 unit/ml G6PDH, 1.3 mM β- nicotinamide adenine dinucleotide phosphate (β- NADP^+), 3.3 mM MgCl2, and 3.3 mM G6P was added to initiate a reaction, and further incubated for 10 min at 37 °C. The reaction was stopped by adding 50 μL of ice-cold acetonitrile containing 7 nM trimipramine (internal standard, IS). After centrifugation at 18,000 g (5 min, 4 °C), aliquots of supernatants were analyzed by LC–MS/MS (Shimadzu LCMS 8060 system, Shimadzu, Kyoto, Japan). All microsomal incubations were conducted in triplicate.
All metabolites and the IS were separated on a Kinetex XB-C18 column (100 × 2.10 mm, 2.6 μm, 100 Å; Phenomenex, Torrance, CA, USA) and analyzed using a Shimadzu LCMS 8060 triple-quadrupole mass spectrometer coupled with a Nexera X2 ultra high-performance liquid chromatography system (Shimadzu, Kyoto, Japan) equipped with an electrospray ionization interface. The mobile phase consisted of 0.1% formic acid in water (A) and 0.1% formic acid in acetonitrile (B). The elution condition was set as 8% B (0–0.5 min), 8%→60% B (0.5–5 min), 60% B (5–6 min), 60%→8% B (6–6.1 min) and 8% B (6.1–9 min) for the analysis of metabolites of P450 probe substrates and set as 0%→40% B (0–1 min), 40%→50% B (1–5 min), 50%→0% B (5–5.1 min), and 0% B (5.1–8 min) for the analysis of metabolites of UGT probe substrates. The flow rate was 0.2 mL/min. Electrospray ionization was performed in positive-ion mode at 4000 V or in negative-ion mode at −3500 V. The optimum operating conditions were determined as follows: vaporizer temperature, 300 °C; capillary temperature, 350 °C; collision gas (argon) pressure, 1.5 mTorr. Quantitation was conducted in selected reaction monitoring (SRM) modes with the precursor-to-product ion transition for each metabolite (Table 1 and Table 2).
We analyzed the data with Shimadzu LabSolution LC–MS software. The IC50 values were calculated by WinNonlin software (Pharsight, Mountain View, CA, USA). The type of inhibition and the apparent kinetic parameters for inhibitory activity (Ki) were determined by following several criteria: visual inspection of Dixon plots, Lineweaver–Burk double reciprocal plots, and secondary plots of Lineweaver–Burk plots versus biflavonoid concentrations, the size of the sum of squares of the residuals, Akaike Information Criteria values, the S.E. and 95% confidence interval of the parameter estimates from the nonlinear regression analysis using the WinNonlin software. The models tested included competitive, competitive partial, noncompetitive, noncompetitive partial, uncompetitive, uncompetitive partial, and mixed-type inhibition.
Regarding `O=c1cc(-c2ccc(O)c(-c3c(-c4ccc(O)cc4)oc4cc(O)cc(O)c4c3=O)c2)oc2cc(O)cc(O)c12` [taiwaniaflavone], the IC50 was 10.6 µM.
Next, `O=C1CC(c2cc(-c3c(O)ccc4c(=O)cc(-c5ccc(O)cc5)oc34)c(O)cc2O)Oc2cc(O)cc(O)c21` (stereo not drawn) [selamariscina A]: 11.6 µM.
With `O=c1cc(-c2ccc(O)cc2)oc2c(-c3c(O)cc(O)c4c(=O)cc(-c5ccc(O)cc5)oc34)c(O)cc(O)c12` [cupressuflavone], the IC50 was greater than 20 µM.
With `O=c1cc(-c2ccc(O)c(-c3c(O)cc4oc(-c5ccc(O)cc5)cc(=O)c4c3O)c2)oc2cc(O)cc(O)c12` [robustaflavone] the figure was 11.8 µM.
With `O=c1cc(-c2ccc(O)c(-c3c(O)cc(O)c4c(=O)cc(-c5ccc(O)cc5)oc34)c2)oc2cc(O)cc(O)c12` [amentoflavone] the figure was 11.9 µM; with `CC(C)(O)c1ccccc1CC[C@@H](SCC1(CC(=O)O)CC1)c1cccc(/C=C/c2ccc3ccc(Cl)cc3n2)c1` [montelukast, reference compound], greater than 50 µM.
